In experiment [1] the target is T1, Adenosine receptor A3 (Homo sapiens, UniProt P0DMS8).
T1 sequence (P0DMS8 whole entry): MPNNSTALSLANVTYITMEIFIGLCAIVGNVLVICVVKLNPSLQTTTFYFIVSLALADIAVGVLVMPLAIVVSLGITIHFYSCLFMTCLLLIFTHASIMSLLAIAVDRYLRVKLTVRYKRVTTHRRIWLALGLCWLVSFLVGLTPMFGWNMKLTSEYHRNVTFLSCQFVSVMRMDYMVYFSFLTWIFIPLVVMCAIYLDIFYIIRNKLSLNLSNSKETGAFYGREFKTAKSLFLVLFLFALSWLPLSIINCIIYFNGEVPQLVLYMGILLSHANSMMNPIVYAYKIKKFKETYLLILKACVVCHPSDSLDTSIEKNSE
Description: Displacement of [3H]NECA from recombinant human adenosine A3 receptor transfected in CHO cell membranes after 3 hrs by microbeta scintillation counting analysis. Background: Displacement assays read how much labelled ligand stays bound in the presence of the test substance.

Experiment [2] concerns the target T2, Adenosine receptor A1 (Homo sapiens, UniProt P30542).
T2 sequence (P30542 whole entry): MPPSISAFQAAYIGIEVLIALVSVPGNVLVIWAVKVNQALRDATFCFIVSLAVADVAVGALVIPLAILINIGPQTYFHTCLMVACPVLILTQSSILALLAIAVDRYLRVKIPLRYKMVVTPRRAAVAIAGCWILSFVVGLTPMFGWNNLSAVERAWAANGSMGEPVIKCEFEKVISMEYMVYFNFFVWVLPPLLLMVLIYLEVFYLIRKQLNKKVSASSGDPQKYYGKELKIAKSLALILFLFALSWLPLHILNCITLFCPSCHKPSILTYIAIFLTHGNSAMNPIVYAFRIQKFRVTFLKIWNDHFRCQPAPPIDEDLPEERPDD
The experiment can be described thus: Displacement of [3H]CCPA from recombinant human adenosine A1 receptor transfected in CHO cell membranes after 3 hrs by microbeta scintillation counting analysis.

For experiment [3], the species on record is Homo sapiens. The experiment can be described thus: Selectivity index, ratio of Ki for recombinant human adenosine A2A receptor to Ki for recombinant human adenosine A1 receptor.
For experiment [4], the species on record is Homo sapiens. The experiment can be described thus: Selectivity index, ratio of Ki for recombinant human adenosine A2B receptor to Ki for recombinant human adenosine A1 receptor.
For experiment [5], the target named is Adenosine receptors; A1 & A3 (Homo sapiens) (UniProt P30542+P0DMS8). The experiment can be described thus: Selectivity index, ratio of Ki for recombinant human adenosine A3 receptor to Ki for recombinant human adenosine A1 receptor.
Experiment [6] has as its target T3, Adenosine receptor A2b (Homo sapiens, UniProt P29275).
T3 sequence (P29275 whole entry): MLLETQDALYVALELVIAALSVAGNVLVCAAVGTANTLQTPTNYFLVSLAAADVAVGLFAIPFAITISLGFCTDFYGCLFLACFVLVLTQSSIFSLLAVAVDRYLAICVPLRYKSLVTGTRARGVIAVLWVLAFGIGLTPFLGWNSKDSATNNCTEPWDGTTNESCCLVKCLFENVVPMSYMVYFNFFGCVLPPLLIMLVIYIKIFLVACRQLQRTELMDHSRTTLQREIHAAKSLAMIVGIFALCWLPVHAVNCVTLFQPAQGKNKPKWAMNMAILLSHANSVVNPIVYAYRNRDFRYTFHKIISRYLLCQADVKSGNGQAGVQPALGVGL
Description: Antagonist activity at recombinant human adenosine A2B receptor expressed in CHO cells assessed as inhibition of NECA-induced adenylyl cyclase activity after 20 mins by [alpha-32P]ATP assay. The format is functional, cell-based.

Experiment [7] addresses Adenosine receptor A2a (Homo sapiens, UniProt P29274). Description: Displacement of [3H]NECA from recombinant human adenosine A2A receptor transfected in CHO cell membranes after 3 hrs by microbeta scintillation counting analysis.

Adenosine receptor A2a, sequence (P29274 whole entry): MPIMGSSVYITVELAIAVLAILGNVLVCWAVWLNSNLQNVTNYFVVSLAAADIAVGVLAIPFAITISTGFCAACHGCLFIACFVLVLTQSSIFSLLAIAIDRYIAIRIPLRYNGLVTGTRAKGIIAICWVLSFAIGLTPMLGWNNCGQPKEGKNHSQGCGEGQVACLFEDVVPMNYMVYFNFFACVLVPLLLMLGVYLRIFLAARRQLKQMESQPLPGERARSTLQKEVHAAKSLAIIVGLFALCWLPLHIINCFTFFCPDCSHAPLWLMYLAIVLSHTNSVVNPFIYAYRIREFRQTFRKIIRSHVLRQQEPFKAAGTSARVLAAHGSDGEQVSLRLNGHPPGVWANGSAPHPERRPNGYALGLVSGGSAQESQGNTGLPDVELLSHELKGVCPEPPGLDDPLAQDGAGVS

With `Cn1c(-c2ccccc2)nc2c(NC3CCOC3)ncnc21` (configuration not stated), the Ki came out at 6260 nM in experiment [1], 8 nM in experiment [2], 13300 nM in experiment [6] and 1830 nM in experiment [7]. Also, the Ratio Ki in experiment [3] was 229; in experiment [4] it was 1660; in experiment [5], 783.
As for `CCn1c(-c2ccccc2)nc2c(N)ncnc21`, the Ki in experiment [1] was determined as 5780 nM; in experiment [2], 31 nM; in experiment [6], 3020 nM; in experiment [7], 212 nM. The Ratio Ki stood at 7 in experiment [3], 97 in experiment [4] and 186 in experiment [5].
Take `Cn1c(-c2ccc(Cl)cc2)nc2c(NC3CCCC3)ncnc21`: the inhibitory constant (Ki) in experiment [1] was 1210 nM; in experiment [2], 18 nM; in experiment [6], more than 30000 nM; in experiment [7], 1820 nM. In addition, the values for the Ratio Ki in experiment [3], in experiment [4] and in experiment [5] were 101, more than 1670 and 67, respectively.
With `CCn1c(-c2ccccc2)nc2c(NC3CCOC3)ncnc21` (configuration not stated), the Ki in experiment [1] came to 1660 nM; in experiment [2] it was 10 nM; in experiment [6], 11500 nM; in experiment [7], 1020 nM. The Ratio Ki in experiment [3] came to 102; in experiment [4], 1150; in experiment [5] it was 166.
`Cc1ccccc1-c1nc2c(NC3CCCC3)ncnc2n1C`: the Ki in experiment [1] was 3000 nM; in experiment [2], 55 nM; in experiment [6] it was more than 30000 nM; in experiment [7] it was 6980 nM. In addition, the Ratio Ki in experiment [3] was 127; in experiment [4] it was more than 545; in experiment [5], 55.
Regarding `Cn1c(-c2cccc(Cl)c2)nc2c(NC3CCCC3)ncnc21`, the inhibition constant Ki in experiment [1] amounted to 514 nM; in experiment [2] it was 6.5 nM; in experiment [6] it was 2530 nM; in experiment [7], 267 nM. Besides, the Ratio Ki amounted to 41 in experiment [3], 389 in experiment [4] and 79 in experiment [5].
For `Cn1c(-c2ccccc2)nc2c(NC3CCC3)ncnc21`, the inhibitory constant (Ki) in experiment [1] worked out at 280 nM; in experiment [2], 3.2 nM; in experiment [6], 3730 nM; in experiment [7], 303 nM. For the same compound, the Ratio Ki in experiment [3] was 95; in experiment [4] it was 1170; in experiment [5], 88.
With `CCCn1c(-c2ccccc2)nc2c(N)ncnc21`, the Ki was 9280 nM in experiment [1], 101 nM in experiment [2], 1040 nM in experiment [6] and 492 nM in experiment [7]. Besides, the Ratio Ki in experiment [3] is 5; in experiment [4] it was 10; in experiment [5] it was 92.
Turning to `CCCn1c(-c2ccccc2)nc2c(NC3CCOC3)ncnc21` (configuration not stated), the Ki came to 2810 nM in experiment [1], 25 nM in experiment [2], 9080 nM in experiment [6] and 1700 nM in experiment [7]. Also, the values for the Ratio Ki in experiment [3], in experiment [4] and in experiment [5] were 68, 363 and 112, respectively.
As to `CCn1c(-c2ccccc2)nc2c(NC3CCC3)ncnc21`, the Ki in experiment [1] is 84 nM; in experiment [2] it was 6 nM; in experiment [6], 1440 nM; in experiment [7], 379 nM. Further, the Ratio Ki was determined as 63 in experiment [3], 240 in experiment [4] and 14 in experiment [5].
With `Cn1c(-c2ccccc2)nc2c(NC3CCCCC3)ncnc21`, the inhibitory constant (Ki) in experiment [1] was 2370 nM; in experiment [2], 5.7 nM; in experiment [6], more than 30000 nM; in experiment [7] it was 527 nM. The Ratio Ki was 92 in experiment [3], more than 5260 in experiment [4] and 416 in experiment [5].
In the case of `Cn1c(-c2ccc(C(=O)O)cc2)nc2c(NC3CCCC3)ncnc21`, the Ki in experiment [1] was 25700 nM; in experiment [2], 54000 nM; in experiment [6], more than 30000 nM; in experiment [7], more than 100000 nM. Also, the Ratio Ki is more than 1.9 in experiment [3], more than 0.6 in experiment [4] and 0.5 in experiment [5].
Turning to `Cn1c(-c2cccnc2)nc2c(NC3CCCC3)ncnc21`, the Ki in experiment [1] was 11000 nM; in experiment [2] it was 242 nM; in experiment [6], more than 30000 nM; in experiment [7] it was 6330 nM. Moreover, the Ratio Ki in experiment [3] was 26; in experiment [4] it was more than 124; in experiment [5], 45.
With `CCCn1c(-c2ccccc2)nc2c(NC3CCCCC3)ncnc21`, the Ki in experiment [1] came out at 2360 nM; in experiment [2] it was 27 nM; in experiment [6], 5310 nM; in experiment [7] it was 1060 nM. Besides, the Ratio Ki in experiment [3] was determined as 39; in experiment [4], 197; in experiment [5], 87.
For the compound `CCCn1c(-c2ccccc2)nc2c(NC3CCC3)ncnc21`, the Ki stood at 264 nM in experiment [1], 15 nM in experiment [2], 774 nM in experiment [6] and 365 nM in experiment [7]. In addition, the Ratio Ki was found to be 24 in experiment [3], 52 in experiment [4] and 18 in experiment [5].
On to `CCn1c(-c2ccccc2)nc2c(NC3CCCC3)ncnc21`, for which the Ki in experiment [1] was 354 nM; in experiment [2] it was 3.9 nM; in experiment [6], 5790 nM; in experiment [7] it was 334 nM. In addition, the Ratio Ki in experiment [3] was found to be 86; in experiment [4], 1480; in experiment [5], 91.
Consider `CCCn1c(-c2ccccc2)nc2c(NC3CCCC3)ncnc21`, for which the Ki in experiment [1] was 749 nM; in experiment [2], 10 nM; in experiment [6] it was 3430 nM; in experiment [7], 634 nM. Moreover, the figures for the Ratio Ki in experiment [3], in experiment [4] and in experiment [5] were 63, 343 and 75, respectively.
With `Cn1c(-c2ccccc2)nc2c(N)ncnc21`, the Ki in experiment [1] was 14000 nM; in experiment [2], 23 nM; in experiment [6], 7790 nM; in experiment [7], 381 nM. In addition, the Ratio Ki in experiment [3] came to 17; in experiment [4] it was 339; in experiment [5] it was 609.
In the case of `Cn1c(-c2ccccc2Cl)nc2c(NC3CCCC3)ncnc21`, the Ki in experiment [1] was 720 nM; in experiment [2], 37 nM; in experiment [6], more than 30000 nM; in experiment [7] it was 3080 nM. The values for the Ratio Ki in experiment [3], in experiment [4] and in experiment [5] were 83, more than 811 and 19, respectively.
With `COc1ccc(-c2nc3c(NC4CCCC4)ncnc3n2C)cc1`, the Ki was 1850 nM in experiment [1], 75 nM in experiment [2], more than 30000 nM in experiment [6] and 1790 nM in experiment [7]. Also, the Ratio Ki in experiment [3] was 24; in experiment [4], more than 400; in experiment [5], 25.
Regarding `CCn1c(-c2ccccc2)nc2c(NC3CCCCC3)ncnc21`, the inhibitory constant (Ki) in experiment [1] turned out to be 707 nM; in experiment [2], 10 nM; in experiment [6], 9020 nM; in experiment [7] it was 307 nM. For the same compound, the Ratio Ki in experiment [3] is 31; in experiment [4] it was 902; in experiment [5], 71.

Broadly, the Ki is a measure of affinity in units of concentration, obtained from inhibition or displacement.
